# Counter-ions that a name gives are not always drawn.
# Key:
# mushroom tyrosinase = experiment: Tyrosinase inhibition (mushroom tyrosinase, L-DOPA, dopachrome absorbance at 475 nm); type: biochemical; conditions: pH 6.8, 22° C., L-DOPA substrate; concentration with 40 to 60% inhibition in a minimum of two trials taken as IC50
# Experimental: Inhibition tests were carried out using aqueous solvents. Saturated stock solutions were prepared by at least 48 hours before the tests were run, which were diluted appropriately upon use in order to increase the solubilities in the aqueous solvents of the lipophilic test compounds.
# Tests were carried out according to conventional procedure as follows. That is, 0.01 to 0.02 ml of a mushroom tyrosinase solution (1,375 U/ml, Sigma Chemical Co.), 0.98 to 0.99 ml of a 0.07M phosphate buffer solution (pH 6.8) and 1 ml of a test solution with or without a test compound listed in Table 2 were mixed, and the resulting mixture was incubated at 22° C. for 8 minutes. Then, 1 ml of a 0.03% aqueous solution of I-DOPA (L-3,4-dihydroxyphenylalanine having a purity of 99%, Sigma Chemical Co.) was added thereto. After incubation at 22° C. for 2 minutes, the amount of dopachrome in the reaction mixture was measured as absorbance (optical density) at 475 nm. The change in absorbance with or without different test samples was monitored every 30 seconds for the following 2.5 minutes using a Beckman DU-64 spectrophotometer (Beckman, Palo Alto, Calif.).
# Each test compound was repeatedly tested until the 50% inhibitory concentration (IC50) (μg/ml) was determined.
# The percent inhibition was calculated according to the following equation: [formula] where A=Absorbance
# ^A final=Final absorbance
# ^A initial=Initial absorbance
# [1] = tested on: Mouse melanoma cell line (ATCC CRL 6322); experiment: Melanin formation inhibition in melanoma cells; type: cell-based; conditions: for inhibition at 250 µM: 0.25 mM; for inhibition at 500 µM: 0.5 mM
# Experimental: Inhibitory effects on the melanin formation in melanoma cells were tested by the following procedure. Results obtained are shown in Table 5, together with the results obtained with arbutin as a control.
# Mouse melanoma cell line (ATCC CRL 6322) was maintained in MEM medium (GIBCO BR, Gaitherburg, Md.) supplemented with 10% heat-inactivated fetal bovine serum described by Maeda (J. Cosmet. Chem., 42, 361 (1991)). More specifically, the cells were cultured on 6-well tissue culture plates (Falcon 3046) with various concentrations of each test compound listed in Table 5 below at 37° C., and at a humidity of 98%, in 5% carbon dioxide atmosphere for 4 days. Cell viability in all tests was determined by Trypan Blue exclusion. The culture media were aspirated, and 1.0 ml of an aqueous 0.25% trypsin solution and an aqueous 0.2% ethylenediaminetetraacetic acid (EDTA) solution were added to each well. Detached cells were placed in an Eppendorf tube, and centrifuged at 1,000 rpm for 5 minutes. The cell pellets thus obtained were mixed with 5% trichloroacetic acid, agitated well, and centrifuged 10,000 rpm to deposit melanin. The melanin pellets were mixed with 1N NaOH for dissolution, and the absorbance at 475 nm was measured, from which melanin formation inhibition (%) was calculated.
# tyrosinase = experiment: Tyrosinase inhibition (long exposure), melanin formation from L-tyrosine; type: biochemical; conditions: test solution 200 μg/ml, pH 6.8, 37° C., L-tyrosine substrate
# Experimental: Tyrosinase inhibitory effects of the active compounds of this invention on long exposure were determined using […]. The method of Chen et al. (J. Agric. Food Chem., 39, 8, 1991) was adapted and scaled down for spectrophotometric analysis on a Bio Rad Model 3550 Microplate Reader (Bio-Rad, Richmond, Calif.), which uses 96-well plates. 20 μl of tyrosinase solution containing 0.02 mg/ml of tyrosinase (Sigma Chemical Company) and 76 μl of a test solution of citronellol, geraniol, or farnesol, adjusted to 200 μg/ml with a phosphate buffer solution (pH 6.8) were added to each well. After incubation at 37° C. for 8 minutes, 1 mM L-tyrosine (Sigma Chemical Company) was added as a substrate. Absorbance at 490 nm was measured every 60 seconds for up to 120 minutes to determine how much the amount of melanin produced from tyrosine substrate decreased as a result of the tyrosinase inhibition.
# [2] = Mus musculus, 96 h, 4 days, 37° C.
SMILES,IC50 (mushroom tyrosinase) [µg/mL],also measured
"OC[C@H]1O[C@@H](Oc2ccc(O)cc2)[C@H](O)[C@@H](O)[C@@H]1O [Arbutin, reference compound]",63,"inhibition at 125 µM ([1]; Mus musculus, 96 h, 0.125 mM, 4 days, 37° C.): 58%; inhibition at 250 µM [1, 2]: 53%; melanin formation inhibition in melanoma cells ([1]; summary of Table 5, aqueous system): exhibited higher inhibitory effects than the active compounds of the present invention"
CC(C)=CCCC(C)CC=O (centres unmarked) [Citronellal],9.4,
CC(C)=CCCC(C)CCO (centres unmarked) [Citronellol],6.3,"Inhibition Ratio (%) on Melanin Formation (tyrosinase; 0 minute): 0%; Inhibition Ratio (%) on Melanin Formation (tyrosinase; 30 minute): 39.6%; Inhibition Ratio (%) on Melanin Formation (tyrosinase; 120 minute): 43.8%; inhibition at 250 µM [1, 2]: 25%; inhibition at 500 µM [1, 2]: 25%"
"CC(C)=CCCC(C)CC#N (centres unmarked) [Citronellyinitrile, citronellylnitrile]",9.4,
CC(=O)OCCC(C)CCC=C(C)C (centres unmarked) [Citronellyl acetate],18.8,
CC(C)=CCCC(C)CCOC(=O)c1ccccc1 (centres unmarked) [Citronellyl benzoate],6.3,
CCCC(=O)OCCC(C)CCC=C(C)C (centres unmarked) [Citronellyl butyrate],37.5,
CC(C)=CCCC(C)CCOC=O (centres unmarked) [Citronellyl formate],6.3,
CC(C)=CCCC(C)CCOC(=O)C(C)C (centres unmarked) [Citronellyl isobutyrate],6.3,"inhibition at 250 µM [1, 2]: 31%; inhibition at 500 µM [1, 2]: 56%"
CCC(=O)OCCC(C)CCC=C(C)C (centres unmarked) [Citronellyl propionate],12.5,
CCCCCCCCCCO [Decanol],12.5,
C=CC(C)CCCC(C)(C)O (centres unmarked) [Dihydromyrcenol],12.5,
CC(C)=CCCC(C)=CCCC(C)=CCO [Farnesol],12.5,Inhibition Ratio (%) on Melanin Formation (tyrosinase; 0 minute): 0%; Inhibition Ratio (%) on Melanin Formation (tyrosinase; 30 minute): 23.6%; Inhibition Ratio (%) on Melanin Formation (tyrosinase; 120 minute): 31.9%
CC(C)=CCCC(C)=CCCC(C)=CCOC(=O)c1ccccc1 [Farnesyl benzoate],25.0,
CC(C)=CCCC(C)=CCCC(C)=CCOC(=O)C(C)C [Farnesyl isobutyrate],12.5,
CC(C)=CCCC(C)=CCCC(C)=CCOC(=O)Cc1ccccc1 [Farnesyl phenylacetate],12.5,
CC(C)=CCC/C(C)=C/CO [Geraniol],6.3,"Inhibition Ratio (%) on Melanin Formation (tyrosinase; 0 minute): 0%; Inhibition Ratio (%) on Melanin Formation (tyrosinase; 30 minute): 37.3%; Inhibition Ratio (%) on Melanin Formation (tyrosinase; 120 minute): 48.5%; inhibition at 250 µM [1, 2]: 30%; inhibition at 500 µM [1, 2]: 18%"
CC(C)=CCC/C(C)=C/COC(=O)C(C)C [Geranyl isobutyrate],12.5,
C=CC(C)(O)CCC=C(C)CCC=C(C)C (centres unmarked) [Nerolidol],12.5,
CCCCCCCCO [Octanol],12.5,

# — patent US5466718A, “Tyrosinase inhibitors” (Takasago Institute for Interdisciplinary, priority 1993, dated 1995)
